Measurements reported in US9062041B2 (Bayer Intellectual Property GmbH, priority 2011, dated 2015).

Assays:
Type in all cases: cell-based
[1] = biological target: EP2 subtype of the human PGE2 receptor (Homo sapiens, UniProt P43116); assay: cAMP antagonism test on the human EP2 receptor (HTRF cAMP detection); conditions: hEP2 receptor, read-out: Antagonism hEP2 IC50
Description: 1. Detection of Antagonism to the Human Prostaglandin E2 (Subtype EP2) Receptor Signal
(§1) The binding of PGE2 to the EP2 subtype of the human PGE2 receptor induces the activation of membrane-located adenylate cyclases and leads to the formation of cAMP. In the presence of the phosphodiesterase inhibitor IBMX, the cAMP accumulated owing to this stimulation and released by cell lysis is used in a competitive detection method. In this test, the cAMP present in the lysate competes with a fluorescence-labelled cAMP (cAMP-d2) for binding to an Eu cryptate-labelled anti-cAMP antibody.
(§2) In the absence of cellular cAMP, a maximal signal is produced, which is attributable to the binding of this cAMP-d2 molecule to the antibody. After excitation of the […] at 337 nm, there is a fluorescence resonance energy transfer (FRET) to the Eu cryptate molecules of the anti-cAMP antibody (labelled therewith), followed by a long-lasting emission signal at 665 nm (and at […]). Both signals are measured in a suitable measurement instrument with a time delay, i.e. after decay of the background fluorescence. Any increase in the low FRET signal caused by prostaglandin E2 administration (measured as well ratio change=emission665 nm/emission620 nm*10000) indicates the action of antagonists.
1.2.1. Test for Antagonism (Data Per Well of a 384-Well Plate):
(§3) To a test plate with the substance solutions already added (0.05 μl; 100% DMSO, concentration range from 0.8 nM-16.5 μM) were added 4 μl of a cAMP-d2/cell suspension (625000 cells/ml). After a 20-minute preincubation at room temperature (RT), 2 μl of a 3×PGE2 solution (1.5 nM, in PBS-IBMX) were added and incubated in the presence of the agonist for a further 60 mins at RT (volume: ˜6 μl). Next the reaction was stopped by addition of 2 μl of lysis buffer and incubated for a further 20 mins at RT before the actual measurement (volume: ˜8 μl).

[2] = biological target: EP4 subtype of the human PGE2 receptor (Homo sapiens, UniProt P35408); assay: cAMP antagonism test on the human EP4 receptor (HTRF cAMP detection); conditions: selectivity towards hEP4, IC50 measured by cAMP antagonism test
EP4 subtype of the human PGE2 receptor, sequence (P35408 whole entry): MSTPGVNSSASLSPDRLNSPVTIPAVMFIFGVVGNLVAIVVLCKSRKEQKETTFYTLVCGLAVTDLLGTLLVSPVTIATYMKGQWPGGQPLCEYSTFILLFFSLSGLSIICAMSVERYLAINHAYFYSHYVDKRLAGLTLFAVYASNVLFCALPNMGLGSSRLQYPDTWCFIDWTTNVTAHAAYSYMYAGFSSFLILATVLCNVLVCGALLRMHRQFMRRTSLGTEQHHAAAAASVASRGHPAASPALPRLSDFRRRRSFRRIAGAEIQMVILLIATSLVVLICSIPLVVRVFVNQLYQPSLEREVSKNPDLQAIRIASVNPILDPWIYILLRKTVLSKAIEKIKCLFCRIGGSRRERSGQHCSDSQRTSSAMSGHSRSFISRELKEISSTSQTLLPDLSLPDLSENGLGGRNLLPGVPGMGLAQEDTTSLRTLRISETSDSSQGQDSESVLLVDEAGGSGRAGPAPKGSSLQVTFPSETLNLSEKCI
Description: 2. Detection of Antagonism to the Human Prostaglandin E2 (Subtype EP4) Receptor Signal
as §1, with “EP4” for “EP2”
as §2, with “cAMP” for “cAMP,”
2.2.1. Test for Antagonism (Data Per Well of a 384-Well Plate):
as §3, with “(312500” for “(625000”, “(0.3” for “(1.5”

human PGD receptor = biological target: T1, human PGD receptor (Homo sapiens, UniProt Q13258); assay: cAMP antagonism test on the human prostaglandin D receptor (HTRF cAMP detection); conditions: selectivity towards hDP, IC50 measured by cAMP antagonism test
T1 sequence (Q13258 1-359): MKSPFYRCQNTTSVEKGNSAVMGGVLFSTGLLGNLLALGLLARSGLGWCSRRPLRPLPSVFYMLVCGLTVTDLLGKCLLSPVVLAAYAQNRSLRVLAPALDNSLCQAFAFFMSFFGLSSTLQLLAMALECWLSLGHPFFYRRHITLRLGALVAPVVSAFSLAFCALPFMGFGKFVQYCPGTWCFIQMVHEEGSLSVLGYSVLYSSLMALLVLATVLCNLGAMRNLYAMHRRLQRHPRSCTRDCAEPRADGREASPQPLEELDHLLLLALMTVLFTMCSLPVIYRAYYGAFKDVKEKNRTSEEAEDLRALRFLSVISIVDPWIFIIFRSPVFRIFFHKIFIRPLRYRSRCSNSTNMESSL
Description: 3. Detection of Antagonism to the Human Prostaglandin D Receptor Signal
as §1, with “of prostaglandin D2” for “of PGE2”, “the” for “the EP2 subtype of the”, “human PGD” for “human PGE2”
as §2
3.2.1. Test for Antagonism (Data Per Well of a 384-Well Plate):
as §3, with “3×PGD2” for “3×PGE2”, “(6” for “(1.5”, “30” for “60”

EP2 subtype of the human PGE2 receptor, sequence (P43116 whole entry): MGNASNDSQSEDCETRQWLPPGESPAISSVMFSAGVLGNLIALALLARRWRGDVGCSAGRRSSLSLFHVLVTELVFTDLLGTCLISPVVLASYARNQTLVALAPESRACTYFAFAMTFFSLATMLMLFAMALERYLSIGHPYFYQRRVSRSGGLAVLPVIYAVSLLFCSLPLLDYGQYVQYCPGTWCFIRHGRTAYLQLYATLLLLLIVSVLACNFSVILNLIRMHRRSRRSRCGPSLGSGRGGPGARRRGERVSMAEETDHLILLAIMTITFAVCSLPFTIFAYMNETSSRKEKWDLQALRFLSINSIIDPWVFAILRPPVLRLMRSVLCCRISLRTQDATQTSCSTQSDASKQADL

Row | Compound | IC50 [1] [nM] | Selectivity hEP2/hEP4 [2] | Selectivity hEP2/hDP (human PGD receptor)
1 | Cc1c(C(=O)NCCOC(F)(F)F)ccc2nn(CC3CN(C(=O)c4ccc(Cl)cc4)C3)cc12 [Example 152, 2-{[1-(4-chlorobenzoyl)azetidin-3-yl]methyl}-4-methyl-N-[2-(trifluoromethoxy)ethyl]-2H-indazol-5-carboxamide] | 33.3 | xxx (xxx > 100) | xxx (xxx > 100)
2 | COCCNC(=O)c1ccc2nn(CC3CCN(C(=O)c4ccc(-c5ccccc5)c(F)c4)CC3)cc2c1C [Example 49, 2-({1-[(2-fluoro-biphenyl-4-yl)-carbonyl]piperidin-4-yl}methyl)-N-(2-methoxyethyl)-4-methyl-2H-indazol-5-carboxamide] | 6.44 | xxx (xxx > 100) | xxx (xxx > 100)
3 | COCCNC(=O)c1ccc2nn(CC3CCN(C(=O)c4ccc(Oc5ccc(C(C)(C)C)cc5)cc4)CC3)cc2c1C [Example 16, 2-({1-[4-(4-tert-butylphenoxy)-benzoyl]piperidin-4-yl}methyl)-N-(2-methoxyethyl)-4-methyl-2H-indazol-5-carboxamide] | 5.85 | xxx (xxx > 100) | xxx (xxx > 100)
4 | COC(C)CNC(=O)c1ccc2nn(CC3CN(C(=O)c4ccc(Cl)cc4)C3)cc2c1C (single isomer, unassigned) [Example 140, (S or R)-2-{[1-(4-chlorobenzoyl)azetidin-3-yl]methyl}-N-(2-methoxypropyl)-4-methyl-2H-indazol-5-carboxamide] | 55.3 | xxx (xxx > 100) | xxx (xxx > 100)
5 | COCCNC(=O)c1ccc2nn(CC3CN(C(=O)c4ccc(Cl)c(C(F)(F)F)c4)C3)cc2c1OC [Example 256, 2-({1-[4-chloro-3-(trifluoromethyl)benzoyl]azetidin-3-yl}methyl)-4-methoxy-N-(2-methoxyethyl)-2H-indazol-5-carboxamide] | 107 | xxx (xxx > 100) | –
6 | Cc1c(C(=O)NCCN2CCC(F)(F)C2)ccc2nn(CC3CCN(C(=O)c4ccc(Cl)cc4)CC3)cc12 [Example 69, 2-{[1-(4-chlorobenzoyl)piperidin-4-yl]methyl}-N-[2-(3,3-difluoropyrrolidin-1-yl)ethyl]-4-methyl-2H-indazol-5-carboxamide] | 29 | – | xxx (xxx > 100)

Next, values leading:

Row | IC50 [1] [nM] | Selectivity hEP2/hEP4 [2] | Selectivity hEP2/hDP (human PGD receptor) | Compound
7 | 15.8 | xxx (xxx > 100) | xxx (xxx > 100) | Cc1c(C(=O)NCC2COCCO2)ccc2nn(CC3CCN(C(=O)c4ccc(Oc5ccc(C(F)(F)F)cc5)cc4)CC3)cc12 (single isomer, unassigned) [Example 418, (R or S)—N-(1,4-dioxan-2-ylmethyl)-4-methyl-2-[(1-{4-[4-(trifluoromethyl)-phenoxy]benzoyl}piperidin-4-yl)methyl]-2H-indazol-5-carboxamide]
8 | 5.48 | xxx (xxx > 100) | xxx (xxx > 100) | COCCNC(=O)c1ccc2nn(CC3CCN(C(=O)c4ccc(-c5ccc(C)c(C)c5)cc4F)CC3)cc2c1C [Example 363, 2-({1-[(3-fluoro-3′,4′-dimethylbiphenyl-4-yl)carbonyl]piperidin-4-yl}methyl)-N-(2-methoxyethyl)-4-methyl-2H-indazol-5-carboxamide]
9 | 12.7 | xxx (xxx > 100) | xxx (xxx > 100) | Cc1c(C(=O)NCCOCC(F)(F)F)ccc2nn(CC3CCN(C(=O)c4ccc(Oc5ccc(F)cc5)cc4)CC3)cc12 [Example 92, 2-({1-[4-(4-fluoro-phenoxy)benzoyl]-piperidin-4-yl}-methyl)-4-methyl-N-[2-(2,2,2-tri-fluoroethoxy)ethyl]-2H-indazol-5-carboxamide]
10 | 6.61 | xxx (xxx > 100) | xxx (xxx > 100) | COCCNC(=O)c1ccc2nn(CC3CCN(C(=O)c4ccc(-c5ccc(OC)cc5F)cc4F)CC3)cc2c1C [Example 364, 2-({1-[(2′,3-difluoro-4′-methoxybiphenyl-4-yl)carbonyl]piperidin-4-yl}methyl)-N-(2-methoxyethyl)-4-methyl-2H-indazol-5-carboxamide]
11 | 15.5 | – | xxx (xxx > 100) | COCCNC(=O)c1ccc2nn(CC3CN(C(=O)c4ccc(C(F)(F)F)cc4F)C3)cc2c1C [Example 120, 2-({1-[2-fluoro-4-(trifluoromethyl)benzoyl]azetidin-3-yl}methyl)-N-(2-methoxy-ethyl)-4-methyl-2H-indazol-5-carboxamide]
12 | 13.2 | – | xxx (xxx > 100) | COCCNC(=O)c1ccc2nn(CC3CN(C(=O)c4ccc(OC(F)(F)F)cc4)C3)cc2c1C [Example 119, N-(2-methoxyethyl)-4-methyl-2-({1-[4-(trifluoromethoxy)benzoyl]azetidin-3-yl}methyl)-2H-indazol-5-carboxamide]
13 | 49 | – | xxx (xxx > 100) | Cc1c(C(=O)NCCN2CCC(F)(F)C2)ccc2nn(CC3CCN(C(=O)c4ccc(SC(F)(F)F)cc4)CC3)cc12 [Example 70, N-[2-(3,3-difluoropyrrolidin-1-yl)ethyl]-4-methyl-2-[(1-{4-[(trifluoromethyl)sulphanyl]benzoyl}piperidin-4-yl)methyl]-2H-indazol-5-carboxamide]
14 | 8.17 | – | xxx (xxx > 100) | COCCNC(=O)c1ccc2nn(CC3CN(C(=O)c4ccc(SC(F)(F)F)cc4)C3)cc2c1C [Example 118, N-(2-methoxyethyl)-4-methyl-2-[(1-{4-[(trifluoromethyl)sulphanyl]benzoyl}azetidin-3-yl)methyl]-2H-indazol-5-carboxamide]
